Test system: sunflower line RW-B
Test: Resistance to different AHAS-inhibitor herbicides, Phytotoxicity Index (FIG. 4)
Format: in vivo
Conditions: concentration of at least 67 grams of active ingredient per hectare
Excerpt: Sunflower lines: The following genetic sunflower lines were used in determining AHAS resistance: two S lines (“B770” and “HA89”), two lines resistant to SUs derived from the population SURES (SuBL and SuRL), two lines resistant to IMIs derived from the population IMISUN (“Rha 426” and “B770imi”) and the line “RW-B”. […] SURES and IMISUN are breeding populations release by the USDA. B770 is a proprietary line from Nidera. B770imi is a proprietary line with B770 background carrying the resistant gene Imr1. RW-B was obtained as described above.
Plants were grown in a greenhouse under natural light conditions supplemented with 400 W halide lamps to provide a 14 h day length. Day/night temperatures were 25 and 20° C., respectively. […] Plants without any symptoms were recorded as “0,” increasing levels of stunting and yellowing with respect to the untreated control plants were recorded as “1” to “4,” increasing levels of leaf abnormalities and leaf necrosis were recorded from “5” to “8,” and dead plants with total necrosis of the apex were recorded as “9.” PI data for each experiment were analyzed by an ANOVA test, means were compared by a LSD test.
Response of sunflower lines (B770, HA89, SuBL, SuRL, Rha426, B770imi and RW-B) to four different families of AHAS inhibiting herbicides. […] The injury was measured using Phytotoxicity Index (PI).

**Q.** For CCOc1nc(F)cc2nc(S(=O)(=O)Nc3c(Cl)cccc3C(=O)OC)nn12 [cloransulam-methyl], which “resistance of RW-B” value is on record?
**A.** resistance

Reference: patent US8952222B2, “Herbicide resistant sunflower plants derived from RW-B cultivar” (Anglo Netherlands Grain B.V., priority 2008, dated 2015)
